Reference: article PMC10783051 (Microbiology Spectrum, 2023)

What was measured:
Streptomyces = conditions: cited from earlier work
Text: As soils are carbon-rich and nitrogen-poor environments, exogenous CLP degradation may thus represent a foraging strategy for Streptomyces to access alternative sources of nutriments directly emanating from diverse microbial competitors. We assume that, in this ...

[1] = tested on: Streptomyces venezuelae ATCC 10712; experiment: In planta co-inoculation on tomato roots, UPLC-MS of rhizosphere extracts; conditions: tomato roots on Hoagland agar, 7 days at 22°C, UPLC-MS of agar near the roots, four biological replicates
Procedure: For the in planta studies, tomato seeds (Solanum lycopersicum var. Moneymaker) were sterilized following the protocol described by ([26]). Briefly, tomato seeds were primarily sterilized in 70% ethanol (vol/vol) by gently shaking for 2 min. Further, the ethanol was removed and the seeds were added to 50 mL of the sterilization solution [4.5 mL of bleach containing 9.5% (vol/vol) of active chlorine, 0.01 g of Tween 80, and 45.5 mL of sterile water] and gently shaken for 10 min. Seeds were thereafter washed 10 times with water to eliminate sterilization solution residues. […]
All UPLC-MS analyses were performed using an Agilent 1290 Infinity II coupled with a diode array detector and a mass detector (Jet Stream ESI-Q-TOF 6530) in positive mode with the parameters set up as follows: capillary voltage of 3.5 kV, nebulizer pressure of 35 lb/in^2, drying gas of 8 L/min, drying gas temperature of 300°C, flow rate of sheath gas of 11 L/min, sheath gas temperature of 350°C, fragmentor voltage of 175 V, skimmer voltage of 65 V, and octopole radiofrequency of 750 V. Accurate mass spectra were recorded in the m/z range of 300–1,700. […]

[2] = tested on: Streptomyces venezuelae ATCC 10712; experiment: Confrontation assay B. velezensis GA1 / S. venezuelae on REM plate, UPLC-MS metabolite profiling of the agar
Procedure: Confrontation assays were performed on square Petri dishes (12 × 12 cm) with 40 mL of REM solid medium at 26°C (REM supplemented with 14 g/L of agar).
S. venezuelae ATCC 10712 was inoculated as stripes (1 × 12 cm) in the middle of the plate with 40 µL of spore suspension (10^7 spores/mL) and spread with a cotton swab. Next, B. velezensis GA1 cells were collected from fresh precultures as described and adjusted to OD600 nm 0.1. Then, 5 µL of B. velezensis GA1 suspension was spotted at 1 cm of the Streptomyces line. Control plates were done following the same procedure without the inoculation of either Bacillus or Streptomyces. Plates were then incubated for 3 days at 26°C in the dark. Pictures of the plates were then captured using a CoolPix camera (NIKKOR ×60 wide optical zoom extra-low dispersion vibration reduction 4.3–258.0 mm 1:33 to 6.5).
The extraction of the metabolites from the agar was performed as follows. For the confrontation experiment, we precisely sampled the area of agar (2 × 1 cm) near the colony of Bacillus or Streptomyces (the confrontation zone is 1 cm wide) with standardized plugs. For the in planta, we sampled the agar area (1 × 1 cm) near the tomato roots. In both cases, the agar samples were transferred to Eppendorf tubes and placed for 24 h at −20°C. Then, the agar was thawed at room temperature and centrifuged for 10 min at 13,000 rpm. The supernatants were then collected and filtered (0.22-µm pore size filters) before UPLC-MS analysis.
All UPLC-MS analyses were performed using an Agilent 1290 Infinity II coupled with a diode array detector and a mass detector (Jet Stream ESI-Q-TOF 6530) in positive mode with the parameters set up as follows: capillary voltage of 3.5 kV, nebulizer pressure of 35 lb/in^2, drying gas of 8 L/min, drying gas temperature of 300°C, flow rate of sheath gas of 11 L/min, sheath gas temperature of 350°C, fragmentor voltage of 175 V, skimmer voltage of 65 V, and octopole radiofrequency of 750 V. Accurate mass spectra were recorded in the m/z range of 300–1,700. For untargeted MS/MS, we used the same MS1 parameters as described. We added MS2 untargeted acquisition mode with the parameters as follows: MS/MS range 50–1,700 m/z; MS/MS scan rate 3 spectra/s; isolation width MS/MS medium (approx. 4 AMU), Decision Engine Native; fixed collision energies of 25 and 40 V for surfactin, 50 V for iturin, and 60 V for fengycin experiments; precursor selection: three for the surfactin experiment, four for the iturin and fengycin experiments, threshold 1,500 (Abs), isotope model common, active exclusion after two spectra and release after 0.5 min, sorting the precursors by charge state then abundance (charge state preference 1). For targeted MS/MS, we used the same MS1 parameters MS/MS range of 50–1,700 m/z or 50–3,200 (when required for Pseudomonas CLPs with mass >1,700 Da), MS/MS scan rate 3 spectra/s, isolation width MS/MS narrow (approx. 1.3 amu), and fixed collision energies 20, 40, and 60V. In all experiments, a C18 Acquity UPLC ethylene bridged hybrid column (2.1 mm × 50 mm × 1.7 µm; Waters Corporation, Milford, MA, USA) was used at a flow rate of 0.6 mL/min and a temperature of 40°C. The injection volume was 20 µL, and the diode array detector scanned a wavelength spectrum between 190 and 600 nm. Unless otherwise mentioned, a gradient of acidified water (0.1% formic acid) (solvent A) and of acidified acetonitrile (0.1% formic acid) (solvent B) was used as mobile phase with a constant flow rate of 0.6 mL/min, starting at 10% B and rising to 100% B in 20 min. Solvent B was kept at 100% for 4 min before going back to the initial ratio. MassHunter Workstation (version 10.0) and ChemStation software were used for data collection and analysis. For untargeted analysis of iturin and fengycin degradation products, we used the same solvent and flow rate, starting at 10% B to 20% in 2 min, then rising to 50% B at 14 min and 100% B at 25 min, followed by 100% B and 5 at 10% B at 6 min.

tobacco cells = conditions: cited from earlier work
Text: Additionally, CLPs are key multifunctional BSMs whose biocontrol-associated activities often involve membrane perturbation and pore formation ([16]). This CLP-membrane interaction is enabled by the peculiar amphiphilic three-dimensional structures of those CLPs ([17], [18]). However, since the degradation alters their structures, it is likely associated with a loss of function. […] Likewise, linearization of su ...

Substance: surfactin
- effect on aerial mycelium formation of Streptomyces (Streptomyces): inhibitory effect
- linear forms in rhizosphere extracts upon co-inoculation of Bv with Sv [1]: high proportion of linear
- abundance of the CLP in the confrontation zone compared with monocultures [2]: decrease in the abundance
- shorter CLP fragment detected in the confrontation zone but not in Bv monoculture [2]: loss of the fatty acid from the linear form
- effect of linearization on the potential to stimulate immune-related defense responses (tobacco cells): almost full loss
